Experimental data as given in US20260069571A1, “DDR1 AND DDR2 INHIBITORS FOR THE TREATEMENT OF CANCER AND FIBROTIC DISEASES” (REDX PHARMA PLC, priority 2021, published 2026).

Columns and labels:
Recombinant human DDR2 = Recombinant human DDR2 (Homo sapiens (Human), UniProt Q16832); experiment: LanthaScreen Eu Kinase Binding Assay, DDR2; conditions: DDR2 1.75 nM (aa427-855, GST tag), Kinase Tracer 178 10 nM; for IC50: read-out: DDR2 pIC50 (converted)
Description: (§1) DDR1 and DDR2 Biochemical Assay Method
(§2) The capacity of compounds to bind to DDR1 and DDR2 was quantified using a LanthaScreen Eu Kinase Binding Assay. Recombinant human DDR1 (2.5 nM; aa440-876 containing a GST tag) and DDR2 (1.75 nM; aa427-855 containing a GST tag) were diluted in assay buffer (50 mM HEPES pH7.3, 10 mM MgCl2, 1 mM EGTA and 0.01% Tween) with various concentrations of compound in a 384-well plate and a volume of 5 uL. After a 30-minute incubation at room temperature, 2.5 uL of Eu-anti GST antibody (diluted to 1 nM in assay buffer) plus Kinase Tracer 178 (diluted in assay buffer to 5 nM for DDR1 and 10 nM for DDR2) were added to the plate. Following 60-minute incubation at room temperature, time-resolved fluorescence was measured on a BMG Labtech PHERAstar plate reader. DMSO (1%) and reference compound (1 μM) were used to generate the Max and Min assay signals, respectively. Data was analysed using a four-parameter logistic model to calculate IC50 values, with at least two independent replicates were performed for each compound.

Recombinant human DDR1 = Recombinant human DDR1 (Homo sapiens (Human), UniProt Q08345); experiment: LanthaScreen Eu Kinase Binding Assay, DDR1; conditions: DDR1 2.5 nM (aa440-876, GST tag), Kinase Tracer 178 5 nM; for IC50: read-out: DDR1 pIC50 (converted)
Description: as §1, §2

Recombinant human DDR1, sequence (Q08345 other isoform, or with tags, fused parts or gaps): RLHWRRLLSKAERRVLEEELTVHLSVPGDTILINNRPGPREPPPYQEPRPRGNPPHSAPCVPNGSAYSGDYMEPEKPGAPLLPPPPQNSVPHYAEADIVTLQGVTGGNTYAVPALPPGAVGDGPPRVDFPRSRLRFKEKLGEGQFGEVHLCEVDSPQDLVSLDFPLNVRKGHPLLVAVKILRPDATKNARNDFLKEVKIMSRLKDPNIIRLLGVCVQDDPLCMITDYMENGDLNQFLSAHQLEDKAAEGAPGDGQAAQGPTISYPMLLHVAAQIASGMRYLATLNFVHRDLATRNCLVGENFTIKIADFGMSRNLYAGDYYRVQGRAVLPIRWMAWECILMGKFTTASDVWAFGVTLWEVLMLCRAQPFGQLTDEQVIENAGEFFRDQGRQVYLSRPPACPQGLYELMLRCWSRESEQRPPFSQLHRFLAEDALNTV
Recombinant human DDR2, sequence (Q16832 427-855): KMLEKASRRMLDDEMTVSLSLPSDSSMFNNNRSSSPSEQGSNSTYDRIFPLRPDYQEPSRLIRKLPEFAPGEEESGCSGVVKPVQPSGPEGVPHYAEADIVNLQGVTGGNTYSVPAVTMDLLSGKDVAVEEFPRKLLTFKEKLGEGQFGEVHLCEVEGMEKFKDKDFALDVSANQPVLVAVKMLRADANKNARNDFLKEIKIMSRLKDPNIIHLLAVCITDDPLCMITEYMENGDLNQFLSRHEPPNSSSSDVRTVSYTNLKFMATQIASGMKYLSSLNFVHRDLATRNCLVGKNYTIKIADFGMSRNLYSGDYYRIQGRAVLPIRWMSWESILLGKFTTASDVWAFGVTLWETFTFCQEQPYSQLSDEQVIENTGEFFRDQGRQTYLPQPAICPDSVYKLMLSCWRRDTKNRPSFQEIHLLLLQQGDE

Row | DDR2 pIC50 (Recombinant human DDR2) | DDR1 pIC50 (Recombinant human DDR1) | IC50 (Recombinant human DDR2) | IC50 (Recombinant human DDR1) | SMILES
1 | A (pIC50>8) | A (pIC50>8) |  |  | Cc1n[nH]c2cc(Nc3cccc4c3C(=O)N(CC(=O)N3CCCC(C(F)(F)F)C3)C4)ccc12 (stereo not shown) [Example 32, 7-[(3-methyl-1H-indazol-6-yl)amino]-2-[2-oxo-2-[3-(trifluoromethyl)-1-piperidyl]ethyl]isoindolin-1-one]
2 | A (pIC50>8) | A (pIC50>8) |  |  | Cc1n[nH]c2cc(Nc3cccc4c3C(=O)N(CC(=O)N3CCC[C@H]3CF)C4)ccc12 [Example 33, 2-[2-[(2S)-(fluoromethyl)pyrrolidin-1-yl]-2-oxo-ethyl]-7-[(3-methyl-1H-indazol-6-yl)amino]isoindolin-1-one]
3 |  |  | 0.01 to 0.1 µM | 0.01 to 0.1 µM | Cc1n[nH]c2cc(Nc3cccc4c3C(=O)N(CC(=O)N3CC(C(F)(F)F)C3)C4)ccc12 [Example 34, 7-[(3-methyl-1H-indazol-6-yl)amino]-2-[2-oxo-2-[3-(trifluoromethyl)azetidin-1-yl]ethyl]isoindolin-1-one]
4 | A (pIC50>8) | A (pIC50>8) |  |  | Cc1n[nH]c2cc(Nc3cccc4c3C(=O)N(CC(=O)NC3CC3(F)F)C4)ccc12 (stereo not shown) [Example 36, N-(2,2-difluorocyclopropyl)-2-[7-[(3-methyl-1H-indazol-6-yl)amino]-1-oxo-isoindolin-2-yl]acetamide]
5 |  | A (pIC50>8) | 0.01 to 0.1 µM |  | Cc1n[nH]c2cc(Nc3cccc4c3C(=O)N(CC(=O)Nc3ccc(CN(C)C)c(C(F)(F)F)c3)C4)ccc12 [Example 37, N-[4-[(dimethylamino)methyl]-3-(trifluoromethyl)phenyl]-2-[7-[(3-methyl-1H-indazol-6-yl)amino]-1-oxo-isoindolin-2-yl]acetamide]
6 |  | A (pIC50>8) | 0.01 to 0.1 µM |  | Cc1n[nH]c2cc(Nc3cccc4c3C(=O)N(CC(=O)N3CCOC(C(F)(F)F)C3)C4)ccc12 (stereo not shown) [Example 38, 7-[(3-methyl-1H-indazol-6-yl)amino]-2-[2-oxo-2-[2-(trifluoromethyl)morpholin-4-yl]ethyl]isoindolin-1-one]
7 |  | A (pIC50>8) | 0.01 to 0.1 µM |  | Cc1n[nH]c2cc(Nc3cccc4c3C(=O)N(CC(=O)Nc3cc(CN(C)C)cc(C(F)(F)F)c3)C4)ccc12 [Example 39, N-[3-[(dimethylamino)methyl]-5-(trifluoromethyl)phenyl]-2-[7-[(3-methyl-1H-indazol-6-yl)amino]-1-oxo-isoindolin-2-yl]acetamide]
8 | A (pIC50>8) | A (pIC50>8) |  |  | Cc1n[nH]c2cc(Nc3cccc4c3C(=O)N(CC(=O)Nc3cnoc3)C4)ccc12 [Example 40, N-isoxazol-4-yl-2-[7-[(3-methyl-1H-indazol-6-yl)amino]-1-oxo-isoindolin-2-yl]acetamide]
9 | A (pIC50>8) | A (pIC50>8) |  |  | Cc1n[nH]c2cc(Nc3cccc4c3C(=O)N(CC(=O)N3CCC[C@H]3C(F)F)C4)ccc12 [Example 41, 7-[(3-methyl-1H-indazol-6-yl)amino]-2-[2-oxo-2-[(2S)-(difluoromethyl)pyrrolidin-1-yl]ethyl]isoindolin-1-one]
10 |  |  | < 0.01 µM | < 0.01 µM | Cc1n[nH]c2cc(Nc3cccc4c3C(=O)N(CC(=O)N3CCCC[C@H]3C(F)(F)F)C4)ccc12 [Example 42, 7-[(3-methyl-1H-indazol-6-yl)amino]-2-[2-oxo-2-[(2S)-(trifluoromethyl)-1-piperidyl]ethyl]isoindolin-1-one]
11 |  | A (pIC50>8) | 0.01 to 0.1 µM |  | CN(CC(F)(F)F)C(=O)CN1Cc2cccc(Nc3ccc4c(cnn4C)c3)c2C1=O [Example 43, N-methyl-2-[7-[(1-methylindazol-5-yl)amino]-1-oxo-isoindolin-2-yl]-N-(2,2,2-trifluoroethyl)acetamide]
12 |  |  | 0.1 to 1 µM | 0.01 to 0.1 µM | Cn1ncc2cc(Nc3cccc4c3C(=O)N(CC(=O)N3CCOC[C@H]3C(F)(F)F)C4)ccc21 [Example 44, 7-[(1-methylindazol-5-yl)amino]-2-[2-oxo-2-[(3S)-(trifluoromethyl)morpholin-4-yl]ethyl]isoindolin-1-one]
13 |  |  | 0.01 to 0.1 µM | < 0.01 µM | Cn1ncc2cc(Nc3cccc4c3C(=O)N(CC(=O)N3CCOC[C@@H]3C(F)(F)F)C4)ccc21 [Example 45, 7-[(1-methylindazol-5-yl)amino]-2-[2-oxo-2-[(3R)-(trifluoromethyl)morpholin-4-yl]ethyl]isoindolin-1-one]
14 | A (pIC50>8) | A (pIC50>8) |  |  | Cc1n[nH]c2cc(Nc3cccc4c3C(=O)N(CC(=O)N(C)CC(F)(F)F)C4)ccc12 [Example 46, N-methyl-2-[7-[(3-methyl-1H-indazol-6-yl)amino]-1-oxo-isoindolin-2-yl]-N-(2,2,2-trifluoroethyl)acetamide]
15 |  | A (pIC50>8) | 0.01 to 0.1 µM |  | Cc1n[nH]c2cc(Nc3cccc4c3C(=O)N(CC(=O)N3CCO[C@@H](C(F)(F)F)C3)C4)ccc12 [Example 47, 7-[(3-methyl-1H-indazol-6-yl)amino]-2-[2-oxo-2-[(2R)-(trifluoromethyl)morpholin-4-yl]ethyl]isoindolin-1-one]
16 |  | A (pIC50>8) | 0.01 to 0.1 µM |  | Cc1n[nH]c2cc(Nc3cccc4c3C(=O)N(CC(=O)N3CCO[C@H](C(F)(F)F)C3)C4)ccc12 [Example 48, 7-[(3-methyl-1H-indazol-6-yl)amino]-2-[2-oxo-2-[(2S)-(trifluoromethyl)morpholin-4-yl]ethyl]isoindolin-1-one]
17 | A (pIC50>8) | A (pIC50>8) |  |  | Cn1ncc2cc(Nc3cccc4c3C(=O)N(CC(=O)NC(C)(C)C(F)(F)F)C4)ccc21 [Example 49, 2-[7-[(1-methylindazol-5-yl)amino]-1-oxo-isoindolin-2-yl]-N-(2,2,2-trifluoro-1,1-dimethyl-ethyl)acetamide]
18 | A (pIC50>8) | A (pIC50>8) |  |  | Cn1ncc2cc(Nc3cccc4c3C(=O)N(CC(=O)N3CCC3C(F)(F)F)C4)ccc21 (stereo not shown) [Example 50, 7-[(1-methylindazol-5-yl)amino]-2-[2-oxo-2-[2-(trifluoromethyl)azetidin-1-yl]ethyl]isoindolin-1-one]
19 | A (pIC50>8) | A (pIC50>8) |  |  | Cn1ncc2cc(Nc3cccc4c3C(=O)N(CC(=O)N3CCC[C@H]3C(F)(F)F)C4)cnc21 [Example 51, 7-[(1-methylpyrazolo[3,4-b]pyridin-5-yl)amino]-2-[2-oxo-2-[(2S)-2-(trifluoromethyl)pyrrolidin-1-yl]ethyl]isoindolin-1-one]
20 |  |  | 0.1 to 1 µM | 0.01 to 0.1 µM | Cn1ncc2cc(Nc3cccc4c3C(=O)N(CC(=O)NC3CC3(F)F)C4)cnc21 (stereo not shown) [Example 52, N-(2,2-difluorocyclopropyl)-2-[7-[(1-methylpyrazolo[3,4-b]pyridin-5-yl)amino]-1-oxo-isoindolin-2-yl]acetamide]
21 |  | A (pIC50>8) | 0.01 to 0.1 µM |  | C[C@H](NC(=O)CN1Cc2cccc(Nc3cnc4c(cnn4C)c3)c2C1=O)C(F)(F)F [Example 53, 2-[7-[(1-methylpyrazolo[3,4-b]pyridin-5-yl)amino]-1-oxo-isoindolin-2-yl]-N-[(1S)-2,2,2-trifluoro-1-methyl-ethyl]acetamide]
22 |  |  | 0.1 to 1 µM | 0.1 to 1 µM | Cn1ncc2cc(Nc3cccc4c3C(=O)N(CC(=O)N3CCO[C@H](C(F)(F)F)C3)C4)cnc21 [Example 54, 7-[(1-methylpyrazolo[3,4-b]pyridin-5-yl)amino]-2-[2-oxo-2-[(2S)-(trifluoromethyl)morpholin-4-yl]ethyl]isoindolin-1-one]
23 |  |  | 0.1 to 1 µM | 0.1 to 1 µM | Cn1ncc2cc(Nc3cccc4c3C(=O)N(CC(=O)N3CCO[C@@H](C(F)(F)F)C3)C4)cnc21 [Example 55, 7-[(1-methylpyrazolo[3,4-b]pyridin-5-yl)amino]-2-[2-oxo-2-[(2R)-(trifluoromethyl)morpholin-4-yl]ethyl]isoindolin-1-one]
24 |  |  | 0.01 to 0.1 µM | 0.01 to 0.1 µM | Cn1ncc2cc(Nc3cccc4c3C(=O)N(CC(=O)N3CCC[C@H]3CF)C4)cnc21 [Example 56, 7-[(1-methylpyrazolo[3,4-b]pyridin-5-yl)amino]-2-[2-oxo-2-[(2S)-(fluoromethyl)pyrrolidin-1-yl]ethyl]isoindolin-1-one]
25 |  |  | ≥ 1 µM | ≥ 1 µM | Cn1ncc2cc(Nc3cccc4c3C(=O)N(CC(=O)N3CCOC[C@@H]3C(F)(F)F)C4)cnc21 [Example 57, 7-[(1-methylpyrazolo[3,4-b]pyridin-5-yl)amino]-2-[2-oxo-2-[(3R)-(trifluoromethyl)morpholin-4-yl]ethyl]isoindolin-1-one]
26 |  | A (pIC50>8) | 0.01 to 0.1 µM |  | Cn1ncc2cc(Nc3cccc4c3C(=O)N(CC(=O)N3CCC[C@H]3C(F)F)C4)cnc21 [Example 58, 7-[(1-methylpyrazolo[3,4-b]pyridin-5-yl)amino]-2-[2-oxo-2-[(2S)-(difluoromethyl)pyrrolidin-1-yl]ethyl]isoindolin-1-one]
